{"source": "patent US20100034778A1", "about": "“STEM CELLS” (DUKE UNIVERSITY, priority 2005, published 2010)", "key": {"[1]": {"test_system": "BM CD34^+CD38^−lin^− cells", "experiment": "Culture of human BM CD34+CD38-lin- cells with TSF plus retinoid/rexinoid ligand (total cell expansion, immunophenotype, CFC content, morphology)", "format": "cell-based", "method": "(§1) Isolation of Human BM and CB CD34^+CD38^−lin− cells\n(§2) Whole BM and CB units were obtained from the Duke University Stem Cell Laboratory within 48 hours of collection. Volume reduction of CB units was accomplished by 10 minute incubation at room temperature with 1% Hetastarch (Abbott Laboratories, North Chicago, Ill.), followed by centrifugation at 700 rpm for 10 minutes to facilitate component separation. The buffy coat was collected and washed twice with Dulbecco's phosphate buffered saline (PBS; Invitrogen, Carlsbad, Calif.) containing 10% heat-inactivated fetal bovine serum (FBS; Hyclone, Logan, Utah), 100 U/ml penicillin, and […] streptomycin (1% pcn/strp; Invitrogen). Cell pellets were resuspended in PBS with 10% FBS and 1% pcn/strp and overlaid onto Lymphoprep (Axis-Shield, Olso, Norway) and centrifuged at 1500 rpm for 30 minutes to isolate the mononuclear cell (MNC) fraction. MNCs were collected and washed twice before proceeding to lineage depletion.\n(§3) Briefly, CB or BM MNCs were resuspended at 5−8×10^7 cells/ml in PBS with 10% FBS and 1% pcn/strp and incubated with 100 μl/ml antibody cocktail for 30 minutes followed by incubation with 60 μl/ml magnetic colloid for 30 minutes. Cells were then magnetically depleted on a pump fed negative selection column (Stem Cell Technologies) using the manufacturer's recommended procedure. Lin-cells were washed twice, quantified by hemacytometer count and cryopreserved in 90% FBS and 10% dimethylsulfoxide (DMSO; Sigma-Aldrich, St. Louis, Mo.) or utilized directly for further experiments.\n(§4) Lin^− CB or BM cells were thawed, washed once in Iscove's Modified Dulbecco's Medium (IMDM; Invitrogen) containing 10% FBS and 1% pcn/strp, counted, and resuspended at 5−10×10^7/ml. Immunofluorescent staining was conducted using anti-human CD34-fluorescein isothiocyanate (FITC) and anti-human CD38-phycoerythrin (PE) monoclonal antibodies (Becton Dickinson, San Jose, Calif.), for 30 minutes on ice. Stained cells were washed twice and resuspended at 1×10^7 cells/ml in IMDM with 10% FBS and 1% pcn/strp. Analysis and sterile cell sorting was conducted using a FACSvantage flow cytometer (Becton Dickinson) to isolate CD34^+CD38^− and CD34^+CD38^+ subsets. The CD34^+CD38^− sort gate was set to collect only those events falling in the lowest 5% of PE fluorescence within the total CD34^+ population, to ensure acquisition of highly purified CD34^+CD38^− cells.\n(§5) Analysis of In Vitro Hematopoietic Activity of Human CD34^+CD38^−lin^− Cells Following Culture with LGD1506\n(§6) Primary human BM and CB CD34^+CD38^−lin cells were placed in culture with 20 ng/mL thrombopoietin, 100 ng/mL stem cell factor (SCF), and flt-3 ligand (TSF), a cytokine combination previously found to induce human stem and progenitor cell proliferation and differentiation in vitro (Chute et al, Blood 105:576-583 (2005), Chute et al, Stem ells 22:202-215 (2004)).\nIn order to assess the hematopoietic effects of retinoid agonists on purified human HSCs, BM and CB CD34^+CD38^−lin^− cells were placed in culture with TSP with and without 1 μM all-trans retinoic acid (ATRA), an agonist of RAR. Total cell expansion, immunophenotype, colony forming cell (CFC) content and morphologic analysis was performed on ATRA-treated progeny and compared with both day 0 CD34^+CD38^−lin^− populations and the progeny of TSF alone to assess the impact of retinoid agonism on the differentiation of human HSCs. This analysis was extended further by cultivating BM and CB CD34^+CD38^−lin^− cells with TSF coupled with ligands with specific affinity for either RAR or RXR (provided courtesy of Ligand Pharmaceuticals, Inc., San Diego, Calif.). The hematopoietic activities of LGD0815, an RARA agonist, LGD0268, an RXR agonist, and LGD1506, an RXR selective modulator, in combination with TSF, were evaluated via measurement of total cell expansion, immunophenotype analysis, CFC content and morphologic analysis of cultured progeny versus day 0 (input) BM or CB CD34^+CD38^−lin^− cells."}, "[2]": {"test_system": "CB CD34^+CD38^−lin^− cells", "experiment": "Culture of human CB CD34+CD38-lin- cells with TSF plus retinoid/rexinoid ligand (immunophenotype, CFC content)", "format": "cell-based", "method": "as §1, §2, §3, §4, §5, §6\nIn order to assess the hematopoietic effects of retinoid agonists on purified human HSCs, BM and CB CD34^+CD38^−lin^− cells were placed in culture with TSP with and without 1 μM all-trans retinoic acid (ATRA), an agonist of RAR. […] The hematopoietic activities of LGD0815, an RARA agonist, LGD0268, an RXR agonist, and LGD1506, an RXR selective modulator, in combination with TSF, were evaluated via measurement of total cell expansion, immunophenotype analysis, CFC content and morphologic analysis of cultured progeny versus day 0 (input) BM or CB CD34^+CD38^−lin^− cells."}, "human BM SRCs": {"test_system": "human BM SRCs", "experiment": "In vivo long-term repopulating assay in NOD/SCID mice (SRC assay) of cultured progeny", "method": "In Vivo Long-Term Repopulating Assays in NOD/SCID Mice\nNOD/SCID mice (Schulz et al, J. Immunol. 154:180-191 (1995)) were transplanted with either day 0 FACS-sorted BM or CB CD34^+CD38^− lin^− HSC-enriched cells or the progeny of CD34^+CD38^−lin− cells cultured with TSF alone or TSF supplemented with 1 μM LGD506, an RXR-specific ligand. Cells were transplanted via tail vein injection after irradiating NOD/SCID mice with 300 cGy using an X-ray irradiator as previously described (Chute et al, Blood 100:4433-4439 (2002), Chute et al, Blood 105:576-583 (2005)). Day 0 CD34^+CD38^−lin− HSCs and their progeny were co-transplanted with 2×10^4 […] accessory cells to facilitate engraftment as previously described (Bonnet et al, Bone Marrow Transpl. 23:203-209 (1999), Bhatia et al, Proc. Natl. Acad. Sci. USA 94:5320-5325 (1997)).\nAll mice in each group were sacrificed at week 8 and marrow samples were obtained by flushing their femurs with IMDM at 4° C. Red cells were lysed using red cell lysis buffer (Sigma-Aldrich) and flow cytometric analysis of human hematopoietic engraftment was performed as previously described using commercially available mAbs against human leukocyte differentiation antigens to identify engrafted human leukocytes and discriminate their hematopoietic lineages (Chute et al, Blood 100:4433-4439 (2002), Chute et al, Blood 105:576-583 (2005), Trischmann et al, J. Hematother. 2:305-313 (1993)).\nStatistical Analysis and SRC Frequency Measurements\nComparisons of data from in vitro experiments were made using the Student's t test. For purposes of the limiting dilution analysis, a transplanted mouse was scored as positively engrafted if ≧0.1% of the marrow cells expressed human-CD45 via high resolution FACS analysis. This criteria is consistent with previously published criteria for human cell repopulation in NOD/SCID mice (Chute et al, Blood 100:4433-4439 (2002), Dorrell et al, Blood 95:102-110 (2000)). SRC frequency in each cell source was calculated using the maximum likelihood estimator as described previously by Taswell (J. Immunol. 126:1614-1619 (1981), Wang et al, Blood 89:3919-3924 (1997), Ueda et al, J. Clin. Invest. 105:1013-1021 (2000)). Confidence intervals for the frequencies were calculated using the profile likelihood method, and the likelihood ratio test was used to confirm the fit of the model."}, "HOXB4": {"test_system": "HOXB4", "experiment": "Quantitative real-time PCR of HOXB4 expression in cultured CB CD34+CD38-lin- cells", "format": "cell-based, human", "description": "Real Time PCR Analysis of LGD506-Treated HSCs\nExtraction of total RNA from Day 0 and Day 7 CB CD34^+ populations was done using a RNeasy Mini spin column (Qiagen, Valencia, Calif.) according to the manufacturer's recommended protocol. […] Briefly, total RNA was isolated from CD34^+CD38^−lin^− cells according to the manufacturer's instructions for the RNaqueous®—Micro (Ambion) and reversed-transcribed to cDNA using iScript™ cDNA synthesis Kit (Biorad, Hercules, Calif.). cDNA concentrations were measured with a fluorometer (Turner Designs, Sunnyvale, Calif.) using RiboGreen reagent (Invitrogen). PCR amplification reactions were performed in 13 μl and contained equal amounts of cDNAs, 6.5 μL of iQ SYBR green supermix (Bio-Rad), 0.2 μM of each forward and reverse gene-specific primers for genes of interest and the normalization gene 36B4. PCR was performed on an iCycler (Bio-Rad) according to the following cycling conditions: an initial cycle of 15 min at 95° C.; 45 cycles of 45 sec at 95° C., 15 sec at 55° C., and 15 sec at 72° C.; followed by a melt-curve analysis cycle with steps of 10 sec each at 0.5° C. increments from 60 to 95° C. Amplification rates were visualized and analyzed on ICYCLER IQ optical system software version 3.0 (Bio-Rad). Gene-specific primers were purchased from Integrated DNA Technologies (Coralville, Iowa)."}, "RXR:LXR heterodimer": {"test_system": "RXR:LXR heterodimer", "conditions": "unpublished data of M. Leibowitz et al.; cited from earlier work"}, "RXR:RAR heterodimer": {"test_system": "RXR:RAR heterodimer", "conditions": "unpublished data of M. Leibowitz et al.; cited from earlier work"}}, "note": "Several values for one entry are separate records, joined by “and”; a condition that tells them apart may be missing. Equal values may be shown once. Entries after “also recorded” stand apart in the source; their conditions may differ."}
{"smiles": "C/C(=C/C=C/C(C)=C/C(=O)O)c1cc(C(C)(C)C)cc(C(C)(C)C)c1OCC(F)F", "note": "[LGD1506]", "values": [{"measurement": "increase in BM CD34+CD38- cell numbers compared to day 0 (input)", "setting": "[1]; BM cells, LGD1506+TSF", "value": 4, "unit": "fold"}, {"measurement": "total cell expansion", "setting": "[1]; BM cells, LGD1506+TSF, day 7", "value": 13, "unit": "fold"}, {"measurement": "reduction in CFC production during culture compared to TSF alone", "setting": "[1]; LGD1506+TSF culture (FIG. 2D)", "value": 50, "unit": "%"}, {"measurement": "morphologic examination of cultured progeny", "setting": "[1]; LGD1506+TSF cultures, data not shown", "value": "predominance of immature blasts"}, {"measurement": "differentiation of human HSCs during culture", "setting": "[1]; LGD1506 with TSF", "value": "inhibited HSC differentiation"}, {"measurement": "CFCs less compared to TSF-cultured cells", "setting": "[1]; progeny of LGD1506+TSF cultures", "value": 2, "unit": "fold"}, {"measurement": "maintenance of CD34+CD38- cells in CB cultures", "setting": "[2]; CB cells, TSF+LGD1506", "value": "supported the maintenance"}, {"measurement": "huCD45+ cell repopulation of transplanted mice", "setting": "human BM SRCs; cell dose 1−2.5×10^3, progeny of TSF+LGD1506 culture", "value": "no huCD45+ cell repopulation was detected"}, {"measurement": "multilineage differentiation in engrafted mice", "setting": "human BM SRCs; mice engrafted with LGD1506-treated cells", "value": "normal multilineage differentiation was evident"}, {"measurement": "percent of transplanted mice with human repopulation", "setting": "human BM SRCs; progeny of 5×10^3 BM CD34+CD38-lin- cells, LGD1506+TSF", "value": "50-80% and 80%"}, {"measurement": "mice showing huCD45+ cell repopulation", "setting": "human BM SRCs; progeny of 5×10^3 BM CD34+CD38-lin- cells, LGD1506+TSF, week 8", "value": "4 of 5"}, {"measurement": "mean huCD45+ cell repopulation", "setting": "human BM SRCs; progeny of 5×10^3 BM cells, LGD1506+TSF", "value": 0.2, "unit": "%"}, {"measurement": "HOXB4 expression over time", "setting": "HOXB4; LGD1506+TSF versus TSF alone (FIG. 3A)", "value": "prevented the downregulation"}, {"measurement": "HOXB4 expression, percent of input (day 0) levels", "setting": "HOXB4; LGD1506 added to TSF", "value": "80% and 70%"}, {"measurement": "effect on RXR:LXR heterodimer", "setting": "RXR:LXR heterodimer", "value": "inhibit"}, {"measurement": "effect on RXR:RAR heterodimer", "setting": "RXR:RAR heterodimer", "value": "neutral or inhibitory effects"}]}
{"smiles": "CC1=C(/C=C/C(C)=C/C=C/C(C)=C/C(=O)O)C(C)(C)CCC1", "note": "[ATRA, all-trans retinoic acid]", "values": [{"measurement": "percentage of CD34+CD38- cells at day 7", "setting": "[1]; BM cells, TSF+1 μM ligand, day 7", "value": "caused a decline"}, {"measurement": "differentiation of human HSCs during culture", "setting": "[2]; ATRA with TSF, by day 7", "value": "enhanced the differentiation; also recorded: induced pronounced differentiation and myelbid maturation"}, {"measurement": "number of CFCs", "setting": "[2]; CB cells, ATRA+TSF versus TSF alone", "value": "signficantly less CFCs; also recorded: decreased"}, {"measurement": "percentage of CD34+ cells", "setting": "[2]; CB cells, TSF+1 μM ATRA, 7 days, versus TSF alone", "value": "marked loss; also recorded: declined relative to TSF alone"}, {"measurement": "CD34+CD38- cells remaining in culture", "setting": "[2]; CB cells, TSF+1 μM ATRA, day 7", "value": "marked loss; also recorded: no CD34^+CD38^− cells remained"}]}
